According to US7354711B2, “Methods for inhibiting immunostimulatory DNA associated responses” (University of Iowa Research Foundation, priority 1997, dated 2008):

Test system: WEHI 231 cells
Assay: Inhibition of CpG-ODN 1760 protection against α-sIgM-induced inhibition of [3H] thymidine uptake
Format: cell-based, mouse
Conditions: for Fold: activity expressed as a fraction of activity of chloroquine / Activity: -log10 of the concentration (M) required for half maximal inhibition of CpG-ODN effect on [3H] thymidine uptake in the presence of α-sIgM: Table 2, 4-aminoquinolines; for Activity: -log10 of the concentration (M) required for half maximal inhibition of CpG-ODN effect on [3H] thymidine uptake in the presence of α-sIgM / Activity,-log10 (concentration (M) for half maximal inhibition of CpG-ODN effect on [3H] thymidine uptake in the presence of α-sIgM): WEHI 231 cells; for Effect on CpG-ODN action (FIG. 1): at concentrations less than 10 μM; for vs. Chloroquine, fold / Activity,-log10 (concentration (M) for half maximal inhibition of CpG-ODN effect on [3H] thymidine uptake in the presence of α-sIgM): Table 3, 9-aminoacridines
Method: The assay of [^3H] Thymidine incorporation was carried out as follows. WEHI 231 cells (200 μL at 2×10^5/milliliter, in duplicate or triplicate) were incubated in a 96-well plate (Costar, Cambridge Mass.). Additions were made as indicated. After incubating for 16 hours, 0.5 μCi [methyl-^3H] thymidine (2 Ci/millimole, DuPont NEN, Boston Mass.) was added to each well, and the cells were incubated for another 4 hours. Cellular DNA was then captured onto glass fiber filters (Whatman 934AH) using a cell harvester (Brandel, Gaithersberg Md.). The filters were dried, placed into plastic scintillation vials with 10 milliliters of scintillation cocktail (EconoSafe, Research Products International, Mount Prospect Ill.), and counted in a liquid scintillation counter (Beckman LS-3133 T). The ^3H recovered on the filter was expressed as a fraction of the ^3H added.
Referring to experiments summarized in FIG. 1, WEHI 231 cells (ca. 2×10^5 per milliliter) were incubated for 16 hours at 37° C. with 10 μgrams/milliliter α-sIgM, 6 μgrams/milliliter ODN 1760, and the indicated concentration of the compound. After 16 hours, 0.5 μCi [^3H] thymidine was added. After 4 more hours incubation, the cellular DNA was harvested onto glass fiber filters. The dry filters were counted in a liquid scintillation counter.
Each experimental point was the mean of at least duplicate measurements.
Referring to the experiments summarized in FIG. 3, 10 μgrams/milliliter α-sIgM and the indicated concentrations of ODN 1760 and quinacrine were added simultaneously to WEHI 231 cells. Thymidine incorporation was estimated at 16 hours as described for Example 1.
Referring to the experiments summarized in FIG. 4, WEHI 231 cells were incubated with α-sIgM and ODN 1760. At times thereafter 0.1 μM quinacrine was added (data shown in the left three bars). Cells were incubated with 10 μgrams/milliliter (α-sIgM and ODN 1760 (6 μgrams/milliliter, phosphorothioate or a phosphodiester ODN with the same sequence as 1760 (PD ODN) (30 μM at time 0 hours and 8 hours; data represented in right six bars in FIG. 4). [^3H] thymidine incorporation was estimated at 16 hours.
The symbol — indicates no change. Me and Et indicate —CH3 and —CH2CH3 respectively. Aromatic substituents are in the para position except as indicated. The activity is —log10 of the concentration (M) required for half maximal inhibition of CpG-ODN effect on [^3H] thymidine uptake in the presence of α-sIgM.

Structure (SMILES)	Fold: activity expressed as a fraction of activity of chloroquine [fold]	Activity: -log10 of the concentration (M) required for half maximal inhibition of CpG-ODN effect on [3H] thymidine uptake in the presence of α-sIgM	also measured
CCN(CC)CCCC(CCl)Nc1ccnc2cc(Cl)ccc12 (stereo not drawn) [compound 56]	1.45	7.12	–
CCN(CC)CCCC(C)Nc1c(C)cnc2cc(Cl)c(C)cc12 (stereo not drawn) [compound 32]	2.57	7.37	–
CCN(CC)CC(CNc1ccnc2cc(Cl)ccc12)c1ccc(OC)cc1 (stereo not drawn) [compound 34]	5.04	7.66	–
CCN(CC)CCCC(C)Nc1c(C)cnc2cc(OC)ccc12 (stereo not drawn) [compound 41]	0.28	6.64	–
CCN(CC)CCCCNc1c(C)cnc2cc(Cl)ccc12 [compound 35]	0.81	6.87	–
C=C[C@H]1C[N@@]2CC[C@H]1C[C@H]2[C@H](O)c1ccnc2ccc(OC)cc12 [quinine, reference compound]	–	–	Effect on CpG-ODN action (FIG. 1): little effect
CCN(CC)CCCC(C)Nc1ccnc2cc(Oc3ccccc3)ccc12 (stereo not drawn) [compound 64]	0.62	6.75	–
CCN(CC)CCCC(C)Nc1c(C)cnc2cc(Cl)ccc12 (stereo not drawn) [compound 1]	0.55	6.70	–
CCN(CC)CC=CC(C)Nc1ccnc2cc(Cl)ccc12 (stereo not drawn) [compound 53]	0.81	6.87	–
CCN(CC)CCCC(CNc1ccnc2cc(Cl)ccc12)c1ccc(Cl)cc1 (stereo not drawn) [compound 33]	2.95	7.43	–
CCN(CC)CCCC(C)Nc1ccnc2ccc(Oc3ccccc3)cc12 (stereo not drawn) [compound 42]	1.48	7.13	–
CCN(CC)CCCC(C)Nc1ccnc2cc(Cl)ccc12 (stereo not drawn) [compound 11]	–	6.56	–
CC[N+](C)(CC)CCCC(C)Nc1ccnc2cc(Cl)ccc12 (stereo not drawn) [compound 8]	0.02	5.18	–
CCN(CC)CCCC(C)Nc1ccnc2cc(Br)ccc12 (stereo not drawn) [compound 4]	0.72	6.82	–
CCN(CC)CCCC(C)Nc1ccnc2cc(F)ccc12 (stereo not drawn) [compound 13]	0.26	6.38	–
OC1CCCC1Nc1ccnc2cc(Cl)ccc12 (stereo not drawn) [compound 47]	0.02	5.25	–
CCN(CC)CCCC(Nc1c2ccc(Cl)cc2nc2ccc(OC)cc12)c1cccs1 (stereo not drawn) [compound 27]	–	–	vs. Chloroquine, fold: 1.82 fold; Activity,-log10 (concentration (M) for half maximal inhibition of CpG-ODN effect on [3H] thymidine uptake in the presence of α-sIgM): 7.22
CN(C)CCCCNc1ccnc2cc(Cl)ccc12 [compound 10]	0.72	6.82	–
CCN(CC)CCCC(C)Nc1cc(-c2ccccc2)nc2cc(Cl)ccc12 (stereo not drawn) [compound 48]	2.14	7.29	–
CCN(CC)CCCC(C)Nc1ccnc2cc(Cl)ccc12 (stereo not drawn) [compound 15]	–	6.96	–

Structure (SMILES)	Fold: activity expressed as a fraction of activity of chloroquine [fold]	Activity: -log10 of the concentration (M) required for half maximal inhibition of CpG-ODN effect on [3H] thymidine uptake in the presence of α-sIgM	also measured
COc1ccc2nc3cc(Cl)ccc3c(NCCCNCCCCNCCCNc3c4ccc(Cl)cc4nc4ccc(OC)cc34)c2c1 [compound 58, bis-(6-chloro-2-methoxy-9-acridinyl)spermine]	–	–	vs. Chloroquine, fold: 0.26 fold; Activity,-log10 (concentration (M) for half maximal inhibition of CpG-ODN effect on [3H] thymidine uptake in the presence of α-sIgM): 6.38
C=C[C@H]1C[N@@]2CC[C@H]1C[C@@H]2[C@@H](O)c1ccnc2ccc(OC)cc12 [Quinidine, quinidine, reference compound]	–	–	Effect on CpG-ODN action (FIG. 1): little effect
CCN(CC)CCCC(Nc1c2ccc(Cl)cc2nc2ccc(OC)cc12)c1ccc(OC)cc1 (stereo not drawn) [compound 30]	–	–	vs. Chloroquine, fold: 2.09 fold; Activity,-log10 (concentration (M) for half maximal inhibition of CpG-ODN effect on [3H] thymidine uptake in the presence of α-sIgM): 7.28
CCOc1cc2c(NC(C)CCCN(CC)CC)c(C)cnc2cc1Cl (stereo not drawn) [compound 71]	0.09	5.90	–
CCN(CC)CCCC(C)Nc1ccnc2cc(OC)ccc12 (stereo not drawn) [compound 14]	0.17	6.20	–
CCN(CC)CCCC(C)Nc1c(C)cnc2cc(Cl)c(C)cc12 (stereo not drawn) [compound 46]	0.21	6.28	–
CCN(CC)CCCC(C)Nc1ccnc2cc(C)ccc12 (stereo not drawn) [compound 37]	0.03	5.50	–
CCN(CC)CCCC(Nc1c2ccc(Cl)cc2nc2ccc(OC)cc12)c1ccccc1 (stereo not drawn) [compound 25]	–	–	vs. Chloroquine, fold: 5.75 fold; Activity,-log10 (concentration (M) for half maximal inhibition of CpG-ODN effect on [3H] thymidine uptake in the presence of α-sIgM): 7.72
COc1cc(NC(C)CCCN)c2ncccc2c1 (stereo not drawn) [primaquine, reference compound]	–	–	Effect on CpG-ODN action (FIG. 1): little effect
CCN(CC)CCCC(C)Nc1ccnc2cc(Cl)c(SCc3ccccc3)cc12 (stereo not drawn) [compound 43]	4.57	7.62	–
CCN(CC)CCCC(C)Nc1c(-c2ccccc2)cnc2cc(Cl)ccc12 (stereo not drawn) [compound 12]	0.69	6.80	–
CCN(CC)CCCC(Nc1c2ccc(Cl)cc2nc2ccc(OC)cc12)c1cccnc1 (stereo not drawn) [compound 24]	–	–	vs. Chloroquine, fold: 3.63 fold; Activity,-log10 (concentration (M) for half maximal inhibition of CpG-ODN effect on [3H] thymidine uptake in the presence of α-sIgM): 7.52
CCN(CC)CCCC(C)Nc1ccnc2cc(Oc3ccccc3)ccc12 (stereo not drawn) [compound 50]	0.74	6.83	–
CCN(CC)CCCC(C)Nc1c(C)c(C)nc2ccccc12 (stereo not drawn) [compound 39]	0.04	5.58	–
CCN(CC)CCCC(C)Nc1ccnc2cccc(Cl)c12 (stereo not drawn) [compound 9]	0.76	6.84	–
CCN(CCO)CCCC(C)Nc1ccnc2cc(Cl)ccc12 (stereo not drawn) [hydroxychloroquine, reference compound]	–	–	Inhibition of the CpG-ODN effect (FIG. 1) (at nanomolar concentrations, 10 μg/mL α-sIgM, 6 μg/mL ODN 1760): completely inhibited
CCN(CC)CCCC(C)Nc1ccnc2cc(C)ccc12 (stereo not drawn) [compound 3]	0.16	6.16	–
CCN(CC)CCCC(C)Nc1cc(-c2ccccc2)nc2cc(OC)ccc12 (stereo not drawn) [compound 44]	3.63	7.52	–
COc1ccc2nc3cc(Cl)ccc3c(N)c2c1 [compound 59, 9-amino-6-chloro-2-methoxyacridine]	–	–	vs. Chloroquine, fold: 1.00 fold; Activity,-log10 (concentration (M) for half maximal inhibition of CpG-ODN effect on [3H] thymidine uptake in the presence of α-sIgM): 6.96
